Tests used:
[1] = test system: NCI-H522; test: Antiproliferative activity against human NCI-H522 cells assessed as inhibition of cell growth at 10 uM measured after 48 hrs by SRB assay relative to control; type: functional
[2] = test system: SW-620; test: Antiproliferative activity against human SW-620 cells assessed as inhibition of cell growth at 10 uM measured after 48 hrs by SRB assay relative to control; type: functional
[3] = test system: MDA-MB-435; test: Antiproliferative activity against human MDA-MB-435 cells assessed as inhibition of cell growth at 10 uM measured after 48 hrs by SRB assay relative to control; type: functional
[4] = test system: UACC-62; test: Antiproliferative activity against human UACC-62 cells assessed as inhibition of cell growth at 10 uM measured after 48 hrs by SRB assay relative to control; type: functional
[5] = test system: OVCAR-8; test: Antiproliferative activity against human OVCAR-8 cells assessed as inhibition of cell growth at 10 uM measured after 48 hrs by SRB assay relative to control; type: functional
[6] = test system: SK-OV-3; test: Antiproliferative activity against human SK-OV-3 cells assessed as inhibition of cell growth at 10 uM measured after 48 hrs by SRB assay relative to control; type: functional
[7] = test system: 786-0; test: Antiproliferative activity against human 786-0 cells assessed as inhibition of cell growth at 10 uM measured after 48 hrs by SRB assay relative to control; type: functional
[8] = test system: PC-3; test: Antiproliferative activity against human PC-3 cells assessed as inhibition of cell growth at 10 uM measured after 48 hrs by SRB assay relative to control; type: functional
[9] = test system: MCF7; test: Antiproliferative activity against human MCF7 cells assessed as inhibition of cell growth at 10 uM measured after 48 hrs by SRB assay relative to control; type: functional
[10] = test system: SR; test: Antiproliferative activity against human SR cells assessed as inhibition of cell growth measured after 48 hrs by SRB assay; type: functional
[11] = test system: A549; test: Antiproliferative activity against human A549 cells assessed as inhibition of cell growth measured after 48 hrs by SRB assay; type: functional
[12] = test system: NCI-H522; test: Antiproliferative activity against human NCI-H522 cells assessed as inhibition of cell growth measured after 48 hrs by SRB assay; type: functional
[13] = test system: NCI-H460; test: Antiproliferative activity against human NCI-H460 cells assessed as inhibition of cell growth measured after 48 hrs by SRB assay; type: functional
[14] = test system: HCC 2998; test: Antiproliferative activity against human HCC 2998 cells assessed as inhibition of cell growth measured after 48 hrs by SRB assay; type: functional
[15] = test system: COLO 205; test: Antiproliferative activity against human COLO 205 cells assessed as inhibition of cell growth measured after 48 hrs by SRB assay; type: functional
[16] = test system: SF-268; test: Antiproliferative activity against human SF-268 cells assessed as inhibition of cell growth measured after 48 hrs by SRB assay; type: functional
[17] = test system: U-251; test: Antiproliferative activity against human U-251 cells assessed as inhibition of cell growth measured after 48 hrs by SRB assay; type: functional
[18] = test system: LOX IMVI; test: Antiproliferative activity against human LOX IMVI cells assessed as inhibition of cell growth measured after 48 hrs by SRB assay; type: functional
[19] = test system: NCI/ADR-RES; test: Antiproliferative activity against human NCI/ADR-RES cells assessed as inhibition of cell growth measured after 48 hrs by SRB assay; type: functional
[20] = test system: SK-OV-3; test: Antiproliferative activity against human SK-OV-3 cells assessed as inhibition of cell growth measured after 48 hrs by SRB assay; type: functional
[21] = test system: CAKI-1; test: Antiproliferative activity against human CAKI-1 cells assessed as inhibition of cell growth measured after 48 hrs by SRB assay; type: functional
[22] = test system: SN12C; test: Antiproliferative activity against human SN12C cells assessed as inhibition of cell growth measured after 48 hrs by SRB assay; type: functional
[23] = test system: UO-31; test: Antiproliferative activity against human UO-31 cells assessed as inhibition of cell growth measured after 48 hrs by SRB assay; type: functional
[24] = test system: PC-3; test: Antiproliferative activity against human PC-3 cells assessed as inhibition of cell growth measured after 48 hrs by SRB assay; type: functional
[25] = test system: MCF7; test: Antiproliferative activity against human MCF7 cells assessed as inhibition of cell growth measured after 48 hrs by SRB assay; type: functional
[26] = test system: HCT-116; test: Cell cycle arrest in human HCT-116 cells assessed as accumulation in sub-G phase at IC50 concentration incubated for 48 hrs by propidium iodide staining based flow cytometry analysis (reference value: 2.4 %); type: functional
[27] = test system: WI-38; test: Cell cycle arrest in human WI-38 cells assessed as accumulation in G2/M phase phase at IC50 concentration incubated for 48 hrs by propidium iodide staining based flow cytometry analysis (reference value: 7.16 %); conditions: wi-38, 48 h
[28] = test system: HCT-116; test: Induction of apoptosis in human HCT-116 cells assessed as early apoptotic cells at IC50 incubated for 48 hrs by annexin-V FITC and propidium iodide staining based flow cytometry analysis (reference value: 1.67 %); type: functional
[29] = test system: HCT-116; test: Induction of apoptosis in human HCT-116 cells assessed as necrotic cells at IC50 incubated for 48 hrs by annexin-V FITC and propidium iodide staining based flow cytometry analysis (reference value: 0.51 %); type: functional
[30] = test system: WI-38; test: Induction of apoptosis in human WI-38 cells assessed as late apoptotic cells at IC50 incubated for 48 hrs by annexin-V FITC and propidium iodide staining based flow cytometry analysis (reference value: 0.29 %); type: cell-based; conditions: wi-38, 48 h
[31] = test system: HCT-116; test: Induction of apoptosis in human HCT116 cells assessed as increase in p53 gene expression by RT-PCR analysis relative to untreated control; type: functional
[32] = test system: HCT-116; test: Induction of apoptosis in human HCT116 cells assessed as up regulation of caspase-3 expression by RT-PCR analysis relative to untreated control; type: functional
[33] = test system: HCT-116; test: Induction of apoptosis in human HCT116 cells assessed as up regulation of caspase-9 expression by RT-PCR analysis relative to untreated control; type: functional
[34] = Selectivity index, ratio of IC50 for human WI-38 cells to IC50 for human HCT116 cells after 48 hrs by MTT assay; type: toxicity; conditions: WI-38 cells versus HCT116 cells, read-out: Ratio IC50
[35] = read-out: LC50 (the source's name)

With `COc1ccc(-n2c(=S)sc3c(Cl)nc(C)nc32)c(OC)c1` the inhibition at 10 µM [1] was > 50%, the inhibition at 10 µM [2] was > 50% and the inhibition at 10 µM [3] was > 50%. For the same compound, the inhibition at 10 µM [4] was > 50%, the inhibition at 10 µM [5] was > 50% and the inhibition at 10 µM [6] was > 50%. For the same compound, the inhibition at 10 µM [7] was > 50%, the inhibition at 10 µM [8] was > 50% and the inhibition at 10 µM [9] was > 50%. The GI50 [10] was 1.41 µM, the TGI [10] was 5.5 µM and the CC50 [10, 35] was > 100 µM. It also gave a GI50 [11] of 4.47 µM, a TGI [11] of 15.8 µM and a CC50 [11, 35] of 40.7 µM. The GI50 [12] was 1.82 µM, the TGI [12] was 3.89 µM and the CC50 [12, 35] was 8.32 µM. It also gave a GI50 [13] of 3.09 µM, a TGI [13] of 9.12 µM and a CC50 [13, 35] of 49 µM. For the same compound, the GI50 [14] was 16.2 µM, the TGI [14] was 30.9 µM and the CC50 [14, 35] was 58.9 µM. For the same compound, the GI50 [15] was 3.8 µM, the TGI [15] was 13.2 µM and the CC50 [15, 35] was 47.9 µM. The GI50 [16] was 2.19 µM, the TGI [16] was 5.25 µM and the CC50 [16, 35] was 17 µM. The GI50 [17] was 1.91 µM, the TGI [17] was 3.63 µM and the CC50 [17, 35] was 6.92 µM. It also gave a GI50 [18] of 1.7 µM, a TGI [18] of 3.16 µM and a CC50 [18, 35] of 6.03 µM. The GI50 [19] was 13.2 µM, the TGI [19] was 72.4 µM and the CC50 [19, 35] was > 100 µM. The GI50 [20] was 14.1 µM, the TGI [20] was 27.5 µM and the CC50 [20, 35] was 52.5 µM. The GI50 [21] was 6.17 µM, the TGI [21] was 19.5 µM and the CC50 [21, 35] was 45.7 µM. For the same compound, the GI50 [22] was 2.82 µM, the TGI [22] was 9.12 µM and the CC50 [22, 35] was 36.3 µM. The GI50 [23] was 3.63 µM, the TGI [23] was 15.5 µM and the CC50 [23, 35] was 39.8 µM. It also gave a GI50 [24] of 2.4 µM, a TGI [24] of 5.89 µM and a CC50 [24, 35] of 22.9 µM. The GI50 [25] was 3.63 µM, the TGI [25] was 15.5 µM and the CC50 [25, 35] was 87.1 µM. The Activity [26] was 17.67%, the Activity [27] was 12.27% and the Activity [28] was 5.38%. For the same compound, the Activity [29] was 3.31%, the Activity [30] was 2.99% and the “fold change (FC)” value [31] was 13.1. The “fold change (FC)” value [32] was 11.2, the “fold change (FC)” value [33] was 15.9 and the selectivity ratio at 48 h [34] was 4.

Source: ChEMBL document CHEMBL4725331, “An investigative study of antitumor properties of a novel thiazolo[4,5-d]pyrimidine small molecule revealing superior antitumor activity with CDK1 selectivity and potent pro-apoptotic properties” (Bioorg Med Chem, 2020)
